Assay results taken from patent US20170056380A1, “Systems, Methods, Techniques, and Compounds in Research and Treatment of Portal Hypertension and other Conditions” (priority 2014, published 2017).

Target: T1, eNOS cytochrome c reductase activity (Rattus norvegicus, UniProt Q62600)
T1 construct: endogenous in cells; host or cells: primary liver sinusoidal endothelial cells from male Sprague-Dawley rats (normal or bile-duct-ligated)
T1 sequence (Q62600 1-1202): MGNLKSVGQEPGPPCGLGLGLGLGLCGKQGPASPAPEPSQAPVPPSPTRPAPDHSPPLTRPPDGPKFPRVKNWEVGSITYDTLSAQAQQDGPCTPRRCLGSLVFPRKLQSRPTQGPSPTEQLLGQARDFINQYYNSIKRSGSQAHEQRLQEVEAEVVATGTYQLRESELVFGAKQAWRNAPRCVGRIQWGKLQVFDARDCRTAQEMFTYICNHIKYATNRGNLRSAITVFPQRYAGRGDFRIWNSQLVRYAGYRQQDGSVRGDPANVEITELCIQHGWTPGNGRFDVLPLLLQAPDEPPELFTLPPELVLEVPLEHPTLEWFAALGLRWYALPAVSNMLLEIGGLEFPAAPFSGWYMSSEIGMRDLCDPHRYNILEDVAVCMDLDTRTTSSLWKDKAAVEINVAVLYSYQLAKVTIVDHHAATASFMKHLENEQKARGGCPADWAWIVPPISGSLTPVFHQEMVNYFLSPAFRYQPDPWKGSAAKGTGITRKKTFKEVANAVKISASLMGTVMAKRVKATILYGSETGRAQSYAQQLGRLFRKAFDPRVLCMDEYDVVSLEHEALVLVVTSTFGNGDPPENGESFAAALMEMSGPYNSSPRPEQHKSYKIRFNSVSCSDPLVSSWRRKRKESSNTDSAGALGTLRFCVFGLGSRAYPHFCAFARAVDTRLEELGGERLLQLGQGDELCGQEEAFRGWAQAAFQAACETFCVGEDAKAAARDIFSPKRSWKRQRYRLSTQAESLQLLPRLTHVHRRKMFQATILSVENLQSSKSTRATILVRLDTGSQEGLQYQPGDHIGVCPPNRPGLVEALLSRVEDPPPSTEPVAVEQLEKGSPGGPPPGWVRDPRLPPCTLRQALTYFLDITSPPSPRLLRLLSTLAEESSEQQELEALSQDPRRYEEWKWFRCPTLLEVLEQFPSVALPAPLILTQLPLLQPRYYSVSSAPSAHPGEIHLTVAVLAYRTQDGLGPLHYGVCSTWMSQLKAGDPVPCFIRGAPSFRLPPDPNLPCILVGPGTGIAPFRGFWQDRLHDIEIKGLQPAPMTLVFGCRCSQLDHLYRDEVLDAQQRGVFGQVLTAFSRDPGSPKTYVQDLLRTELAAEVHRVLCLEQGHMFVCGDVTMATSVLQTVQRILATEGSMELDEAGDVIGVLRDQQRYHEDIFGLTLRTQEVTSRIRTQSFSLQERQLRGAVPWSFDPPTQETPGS
Test: NADPH-dependent cytochrome c reductase assay in sinusoidal endothelial cell lysates
Type: cell-based
Experimental: Cell isolation and culture. Sinusoidal endothelial cells were isolated from male Sprague-Dawley rats (450-500 g) (Harlan, Indianapolis, Ind.). In brief, after in situ perfusion of the liver with 20 mg/100 mg pronase (Roche Molecular Biochemicals, Indianapolis, Ind.), followed by collagenase (Worthington Biochemical, Lakewood, N.J.), dispersed cell suspensions were removed from a layered discontinuous density gradient of 8.2 and 15.6% Accudenz (Accurate Chemical and Scientific, Westbury, N.Y.), further purified by centrifugal elutriation (18 ml/min flow), and were grown in medium containing 20% serum (10% horse/calf). The purity of endothelial cells was documented by their uptake of fluorescently labeled di-l-acetoacetylated low-density lipoprotein as described (21). Only primary sinusoidal endothelial isolates of >95% purity were used for study. Experiments were performed with cells frorrr a minimum three different isolations (for all experiments).
NOS activity assay. NOS activity from sinusoidal endothelial cell lysates was assessed by measuring the conversion of L-[3H]arginine to L-[3H]citrulline as described (6) per the manufacturer's instructions (Cayman Chemical). […] Radiolabeled counts per minute of generated L-citrulline were measured and used to determine L-NAME-inhibitable NOS activity (thus, each experiment included total counts and background counts). […] The reductase activities of sinusoidal endothelial cells with or without cicletanine exposure were determined using the NADPH-dependent cytochrome c assay. […] The reduction of cytochrome c was monitored at 550 nm at 25° C. […] Turnover number was calculated using the absorbance change during this 30-s interval and an extinction coefficient of 0.021/μM.

Cc1ncc2c(c1O)COC2c1ccc(Cl)cc1 (stereo not drawn) [cicletanine, 3-(4-chlorophenyl)-1,3-dihydro-7-hydroxy-6-methylfuro-(3,4-c) pyridine]
rate of cytochrome c reduction compared with no cicletanine treatment (CaM stimulation): twofold more
rate of cytochrome c reduction compared with no cicletanine treatment (basal level): twofold more
cytochrome c reductase activity (cicletanine 100 nM, 2 h): significant increase
